Test results from patent publication US7989451B2, “Tricyclic 1,2,4-triazine oxides and compositions for therapeutic use in cancer treatments” (Auckland Uniservices Limited, priority 2005, dated 2011).
Like-named read-outs stand apart in the source and are kept apart here.

What was measured:
[1] = tested on: human cervical carcinoma SiHa; test: Proliferation assay (IC50) under aerobic and hypoxic conditions, SiHa; assay type: cell-based; conditions: for IC50: Homo sapiens, 4 h drug exposure, sulforhodamine B; for HCR: hypoxic cytotoxicity ratio = IC50 aerobic/IC50 hypoxic
Protocol: (§1) Compounds representative of the invention were evaluated under both aerobic and hypoxic conditions in a proliferation assay (IC50), using two cell lines: human colon carcinoma HT29, and human cervical carcinoma SiHa (Table 1).
(§2) Drug exposures were performed in 96-well plates (Nunc) either using a 37 DC humidified incubator (20% O2, 5% CO2) or in the incubator compartment (37° C.) of an anaerobic chamber (Shell Lab) where palladium catalyst scrubbed gas (90% N2, 5% H2, 5% CO2) ensures severe anoxia (<0.001% O2). For each experiment, compounds were simultaneously tested under both oxic and hypoxic conditions and included TPZ as an internal control. An 8-methyl-5-nitroquinoline derivative, SN 24349, known to require very low oxygen concentrations for bioactivation (Siim et al., Br. J. Cancer 1994, 70, 596-603) was used to confirm that strict hypoxia was present during the experiment. […] Cell cultures were grown in αMEM (Gibco) containing 5% heat inactivated FCS and maintained in exponential growth phase. For each individual experiment an appropriate number of cells were seeded (HT29=1100; SiHa=1500) into wells in αMEM+10% FCS+10 mM added glucose+100 μM 2′-deoxycytidine (2′dCyd), and allowed to attach for 2-3 h. High glucose (final concentration 17 mM) and the presence of 2′-dCyd minimize hypoxia-induced cell cycle arrest. Cultures were then exposed to drugs, using 3-fold serial dilutions in duplicate, for a further 4 h. Subsequently cells were washed free of compound using complete media (without glucose/2′-dCyd) and allowed to grow for 5 (oxic) or 6 (anoxic) days. Plates were stained with sulforhodamine B as described previously (Wilson et al., J. Med. Chem. 1989, 32, 31-38) and IC50 values determined.
(§3) HCR=Hypoxic cytotoxicity ratio is defined as the ratio of IC50 values under aerobic and hypoxic conditions (IC50 aerobic/IC50 hypoxic).

[2] = tested on: human colon carcinoma HT29; test: Proliferation assay (IC50) under aerobic and hypoxic conditions, HT29; assay type: cell-based; conditions: for IC50: Homo sapiens, 4 h drug exposure, sulforhodamine B; for HCR: hypoxic cytotoxicity ratio = IC50 aerobic/IC50 hypoxic
Protocol: as §1, §2, §3

[3] = hypoxic (anaerobic chamber, <0.001% O2), then 6 days growth, read-out: IC50 (μM) hypoxic
[4] = oxic (20% O2), then 5 days growth, read-out: IC50 (μM) oxic
[5] = HT-29, hypoxic (anaerobic chamber, <0.001% O2), then 6 days growth, read-out: IC50 (μM) hypoxic
[6] = HT-29, oxic (20% O2), then 5 days growth, read-out: IC50 (μM) oxic

Work on `CN(C)CCNc1n[n+]([O-])c2c3c(ccc2[n+]1[O-])CCC3` [Compound 7, N^1,N^1-Dimethyl-N^2-(1,4-dioxido-8,9-dihydro-7H-indeno[5,4-e][1,2,4]triazin-3-yl)-1,2-ethanediamine] yielded an IC50 [1, 3] of 1.6 µM, an IC50 [1, 4] of 226 ± 46 µM and an HCR [1] of 99. For the same molecule, the melting point was 153 to 156 °C, the IC50 [2, 5] was 3 µM and the IC50 [2, 6] was 255 ± 53 µM. For the same molecule, the HCR [2] was 67.

`CCN(CC)CCNc1n[n+]([O-])c2c3c(ccc2[n+]1[O-])CCC3` [Compound 9, N^1,N^1-Diethyl-N^2-(1,4-dioxido-8,9-dihydro-7H-indeno[5,4-e][1,2,4]triazin-3-yl)-1,2-ethanediamine] gave an IC50 [1, 3] of 0.9 ± 0.2 µM, an IC50 [1, 4] of 59 ± 4 µM and an HCR [1] of 64 ± 4. It also gave a melting point of 138 to 141 °C, an IC50 [2, 5] of 4.2 ± 1.5 µM and an IC50 [2, 6] of 72 ± 22 µM. The HCR [2] was 17 ± 5.

`CCCN(CCC)CCNc1nc2ccc3c(c2[n+]([O-])n1)CCC3` [Compound 11, N^1-(1-Oxido-8,9-dihydro-7H-indeno[5,4-e][1,2,4]triazin-3-yl)-N^2,N^2-dipropyl-1,2-ethanediamine] gave an IC50 [1, 3] of 3.3 ± 0.3 µM, an IC50 [1, 4] of 74 ± 27 µM and an HCR [1] of 23 ± 10. It also gave a melting point of 133 to 135 °C, an IC50 [2, 5] of 12.4 µM and an IC50 [2, 6] of 99 ± 9 µM. It also gave an HCR [2] of 7.

`[O-][n+]1nc(NCCN2CCCCC2)[n+]([O-])c2ccc3c(c21)CCC3` [Compound 13, N-[2-(1-Piperidinyl)ethyl]-8,9-dihydro-7H-indeno[5,4-e][1,2,4]triazin-3-amine 1,4-Dioxide] showed an IC50 [1, 3] of 1 ± 0.1 µM, an IC50 [1, 4] of 52 ± 8 µM and an HCR [1] of 51 ± 1. For the same molecule, the melting point was 138 to 141 °C, the IC50 [2, 5] was 4.9 ± 0.6 µM and the IC50 [2, 6] was 251 ± 24 µM. The HCR [2] was 53 ± 11.

`Nc1n[n+]([O-])c2cc3c(cc2[n+]1[O-])CCC3` [Compound 20, 7,8-Dihydro-6H-indeno[5,6-e][1,2,4]triazin-3-amine 1,4-Dioxide] showed an IC50 [1, 3] of 8.3 ± 0.4 µM, an IC50 [1, 4] of 253 ± 30 µM and an HCR [1] of 31 ± 5. The melting point was 190 to 195 °C, the IC50 [2, 5] was 15 ± 6 µM and the IC50 [2, 6] was 387 ± 108 µM. The HCR [2] was 27 ± 2.

`CN(C)CCNc1n[n+]([O-])c2cc3c(cc2[n+]1[O-])CCC3` [Compound 23, N^1-(1,4-Dioxido-7,8-dihydro-6H-indeno[5,6-e][1,2,4]triazin-3-yl)-N^2,N^2-dimethyl-1,2-ethanediamine] gave an IC50 [1, 3] of 0.7 ± 0.3 µM, an IC50 [1, 4] of 105 ± 21 µM and an HCR [1] of 111 ± 5. The melting point was 150 to 153 °C, the IC50 [2, 5] was 2.3 ± 0.6 µM and the IC50 [2, 6] was 318 ± 14 µM. For the same molecule, the HCR [2] was 152 ± 35.

Work on `[O-][n+]1nc(NCCO)[n+]([O-])c2cc3c(cc21)CCC3` [Compound 25, 2-[(1,4-Dioxido-7,8-dihydro-6H-indeno[5,6-e][1,2,4]triazin-3-yl)amino]ethanol] yielded an IC50 [1, 3] of 17.7 ± 0.6 µM, an IC50 [1, 4] of 751 µM and an HCR [1] of 42. For the same molecule, the melting point was 187 to 188 °C, the IC50 [2, 5] was 47 ± 4 µM and the IC50 [2, 6] was 1520 µM. For the same molecule, the HCR [2] was 32.

Work on `CCCN(CCC)CCNc1n[n+]([O-])c2cc3c(cc2[n+]1[O-])CCC3` [Compound 29, N^1-(1,4-Dioxido-7,8-dihydro-6H-indeno[5,6-e][1,2,4]triazin-3-yl)-N^2,N^2-dipropyl-1,2-ethanediamine] yielded an IC50 [1, 3] of 0.7 µM, an IC50 [1, 4] of 63 µM and an HCR [1] of 91. The melting point was 142 to 145 °C, the IC50 [2, 5] was 2.5 µM and the IC50 [2, 6] was 196 µM. It also gave an HCR [2] of 77.

In the case of `COCCN(C)CCNc1n[n+]([O-])c2cc3c(cc2[n+]1[O-])CCC3` [Compound 31, N^1-(1,4-Dioxido-7,8-dihydro-6H-indeno[5,6-e][1,2,4]triazin-3-yl)-N^2-(2-methoxyethyl)-N2-methyl-1,2-ethanediamine], the IC50 [1, 3] is reported as 2.5 ± 0.8 µM, the IC50 [1, 4] is reported as 162 ± 48 µM and the HCR [1] is reported as 67 ± 2. For the same molecule, the melting point was 58 to 61 °C, the IC50 [2, 5] was 5.9 ± 0.8 µM and the IC50 [2, 6] was 172 ± 100 µM. It also gave an HCR [2] of 26 ± 12.

`COCCCN(C)CCNc1n[n+]([O-])c2cc3c(cc2[n+]1[O-])CCC3` [Compound 33, N^1-(1,4-Dioxido-7,8-dihydro-6H-indeno[5,6-e][1,2,4]triazin-3-yl)-N^2-(3-methoxypropyl)-N^2-methyl-1,2-ethanediamine] showed an IC50 [1, 3] of 2 ± 1.1 µM, an IC50 [1, 4] of 152 ± 38 µM and an HCR [1] of 92 ± 30. It also gave a melting point of 129 to 131 °C, an IC50 [2, 5] of 6.3 ± 2.1 µM and an IC50 [2, 6] of 315 ± 84 µM. It also gave an HCR [2] of 52 ± 4.

For `COC1CN(CCNc2n[n+]([O-])c3cc4c(cc3[n+]2[O-])CCC4)C1` [Compound 35, N-[2-(3-Methoxy-1-azetidinyl)ethyl]-7,8-dihydro-6H-indeno[5,6-e][1,2,4]triazin-3-amine 1,4-Dioxide], the IC50 [1, 3] was 1.8 ± 0.2 µM, the IC50 [1, 4] was 108 ± 8 µM and the HCR [1] was 61 ± 10. For the same molecule, the melting point was 152 °C (dec.), the IC50 [2, 5] was 3.4 ± 0.1 µM and the IC50 [2, 6] was 165 ± 10 µM. The HCR [2] was 49 ± 5.

In the case of `[O-][n+]1nc(NCCN2CCCCC2)[n+]([O-])c2cc3c(cc21)CCC3` [Compound 37, N-[2-(1-Piperidinyl)ethyl]-7,8-dihydro-6H-indeno[5,6-e][1,2,4]triazin-3-amine 1,4-Dioxide], the IC50 [1, 3] is reported as 1.3 ± 0.4 µM, the IC50 [1, 4] is reported as 101 ± 25 µM and the HCR [1] is reported as 143. For the same molecule, the melting point was 165 to 168 °C, the IC50 [2, 5] was 5.8 ± 2.9 µM and the IC50 [2, 6] was 186 ± 58 µM. It also gave an HCR [2] of 49 ± 35.

`CC1CCCC(C)N1CCNc1n[n+]([O-])c2cc3c(cc2[n+]1[O-])CCC3` (stereo not drawn) [Compound 39, N-[2-(2,6-Dimethyl-1-piperidinyl)ethyl]-7,8-dihydro-6H-indeno[5,6-e][1,2,4]triazin-3-amine 1,4-Dioxide] gave an IC50 [1, 3] of 1.1 ± 0.1 µM, an IC50 [1, 4] of 73 ± 14 µM and an HCR [1] of 65 ± 13. It also gave a melting point of 170 to 172 °C, an IC50 [2, 5] of 2.7 ± 0.2 µM and an IC50 [2, 6] of 117 ± 47 µM. The HCR [2] was 42 ± 15.

`COC1CCN(CCNc2n[n+]([O-])c3cc4c(cc3[n+]2[O-])CCC4)CC1` [Compound 43, N-[2-(4-Methoxy-1-piperidinyl)ethyl]-7,8-dihydro-6H-indeno[5,6-e][1,2,4]triazin-3-amine 1,4-Dioxide] showed an IC50 [1, 3] of 1.2 ± 0.1 µM, an IC50 [1, 4] of 91 ± 3 µM and an HCR [1] of 78 ± 11. It also gave a melting point of 148 to 151 °C, an IC50 [2, 5] of 3.5 ± 0.3 µM and an IC50 [2, 6] of 187 ± 98 µM. The HCR [2] was 56 ± 33.

Molecule `[O-][n+]1nc(NCCN2CCCCCC2)[n+]([O-])c2cc3c(cc21)CCC3` [Compound 47, N-[2-(1-Azepanyl)ethyl]-7,8-dihydro-6H-indeno[5,6-e][1,2,4]triazin-3-amine 1,4-Dioxide] has an IC50 [1, 3] of 0.71 ± 0.01 µM, an IC50 [1, 4] of 67 ± 5 µM and an HCR [1] of 95 ± 6. For the same molecule, the melting point was 181 to 184 °C, the IC50 [2, 5] was 1.4 ± 0.1 µM and the IC50 [2, 6] was 72 ± 2 µM. It also gave an HCR [2] of 52 ± 1.

In the case of `[O-][n+]1nc(NCCCO)[n+]([O-])c2cc3c(cc21)CCC3` [Compound 51, 3-[(1,4-Dioxido-7,8-dihydro-6H-indeno[5,6-e][1,2,4]triazin-3-yl)amino]-1-propanol], the IC50 [1, 3] is reported as 20.5 ± 3.3 µM, the IC50 [1, 4] is reported as 455 ± 25 µM and the HCR [1] is reported as 22 ± 1. It also gave a melting point of 182 to 184 °C, an IC50 [2, 5] greater than 50 µM and an IC50 [2, 6] of 1610 µM.

Work on `COCCN(C)CCCNc1n[n+]([O-])c2cc3c(cc2[n+]1[O-])CCC3` [Compound 53, N^1-(1,4-Dioxido-7,8-dihydro-6H-indeno[5,6-e][1,2,4]triazin-3-yl)-N^3-(2-methoxyethyl)-N^3-methyl-1,3-propanediamine] yielded an IC50 [1, 3] of 2.6 ± 0.4 µM, an IC50 [1, 4] of 142 ± 6 µM and an HCR [1] of 55 ± 6. The melting point was 77 to 79 °C, the IC50 [2, 5] was 5.4 ± 2.8 µM and the IC50 [2, 6] was 261 ± 90 µM. The HCR [2] was 81 ± 60.

`COC1CN(CCCNc2n[n+]([O-])c3cc4c(cc3[n+]2[O-])CCC4)C1` [Compound 55, N-[3-(3-Methoxy-1-azetidinyl)propyl]-7,8-dihydro-6H-indeno[5,6-e][1,2,4]triazin-3-amine 1,4-Dioxide] showed an IC50 [1, 3] of 1.4 ± 0.4 µM, an IC50 [1, 4] of 99 ± 14 µM and an HCR [1] of 83 ± 34. The melting point was 150 to 152 °C, the IC50 [2, 5] was 2.4 ± 0.3 µM and the IC50 [2, 6] was 233 ± 19 µM. The HCR [2] was 102 ± 22.

For `COC1CCN(CCCNc2n[n+]([O-])c3cc4c(cc3[n+]2[O-])CCC4)CC1` [Compound 59, N-[3-(4-Methoxy-1-piperidinyl)propyl]-7,8-dihydro-6H-indeno[5,6-e][1,2,4]triazin-3-amine 1,4-Dioxide], the IC50 [1, 3] was 2 ± 0.2 µM, the IC50 [1, 4] was 114 ± 2 µM and the HCR [1] was 57 ± 1. The melting point was 128 to 130 °C, the IC50 [2, 5] was 7.1 ± 0.8 µM and the IC50 [2, 6] was 494 ± 36 µM. For the same molecule, the HCR [2] was 70 ± 5.
